Like-named read-outs stand apart in the source and are kept apart here.
Legend:
[1] = test system: chloroquine-sensitive Plasmodium falciparum strain 3D7; test: Malstat assay, chloroquine-sensitive strain 3D7; assay type: cell-based; settings: for IC50 / IC90: Plasmodium falciparum; for IC50: read-out: P. falciparum 3D7 IC50; for IC90: read-out: P. falciparum 3D7 IC90
Method: (§1) The chloroquine-sensitive Plasmodium falciparum strain 3D7 and the chloroquine-resistant strain Dd2 were cultivated in vitro at 5% hematocrit in complete medium comprising RPMI 1640/HEPES medium supplemented with 0.5% w/w Albumax II, 10 µg/mL gentamicin, and 50 µg/mL hypoxanthine. Cultures were maintained at 37 °C in an atmosphere of 5% CO2, 5% O2, and 90% N2. To enrich parasites in the ring-stage, an asexual blood stage culture was synchronized. The culture was centrifuged at 1000× g for 3 min, and the supernatant was discarded. The cell pellet was resuspended in 5% sorbitol and incubated at room temperature for 10 min. Subsequently, the culture was centrifuged, and the pellet was washed with RPMI 1640/HEPES medium. After a final centrifugation step, the cell pellet was resuspended in fresh complete medium and returned to standard culture conditions for further cultivation. Human serum and erythrocyte concentrate were obtained from the Department of Transfusion Medicine, University Hospital Aachen, Germany. Donor sera and blood samples were pooled and kept anonymous. The work with human blood was approved by the Ethics Commission of the RWTH University Hospital (EK 007/13).
(§2) Synchronized ring-stage cultures of the P. falciparum strains 3D7 and Dd2 mixed with the compound were plated in triplicate into 96-well plates (200 µL/well) at a parasitemia of 1%. […] In addition, a dilution series with chloroquine with concentrations between 500 nM and 4 nM was used as a positive control and 0.5% v/v DMSO was used as a negative control. The cultures were then incubated under standard culture conditions for 72 h. Following incubation, 20 µL of the culture was transferred in triplicate to a new 96-well plate and mixed with 100 µL of Malstat reagent (0.1% v/v Triton X-100, 1 g L-lactate, 0.33 g Tris and 33 mg of 3-acetylpyridine adenine dinucleotide in 100 mL distilled water, pH 9.0) and 20 µL mixture of NBT and diaphorase (1:1 v/v; 1 mg/mL stock each). After colour development in the wells, absorbance was measured at OD630nm using a Tecan Plate Reader. The IC50 and IC90 values of the compounds were then determined using the GraphPad Prism software.

[2] = test system: chloroquine-resistant P. falciparum strain Dd2; test: Malstat assay, chloroquine-resistant strain Dd2; assay type: cell-based, Plasmodium falciparum; settings: for RI, resistance index = IC50 (Dd2)/IC50 (3D7): Dd2 vs 3D7; for IC50 / IC90: Plasmodium falciparum; for IC50: read-out: IC50 P. falciparum Dd2; for IC90: read-out: IC90 P. falciparum Dd2
Method: as §1, §2

[3] = test system: Human umbilical vein endothelial cells (HUVECs); settings: cited from earlier work
[4] = test system: Human umbilical vein endothelial cells (HUVECs); test: Cytotoxicity assay (CellTiter-Blue cell viability assay); assay type: cell-based; settings: HUVEC, 72 h
Method: Human umbilical vein endothelial cells (HUVECs) were purchased from Promocell (Heidelberg, Germany) and cultivated with ECGM Kit enhanced (PELO Biotech, Planegg, Germany) supplemented with 10% (FCS) (PAA Laboratories, Cölbe, Germany) and 1% penicillin/streptomycin/amphotericin B (all purchased from PAN Biotech). Cells were cultured at 37 °C with 5% CO2 with constant humidity. Cell proliferation was assessed using the CellTiter-Blue cell viability assay (Promega, Madison, WI, USA). Cells were treated as indicated for 72 h and 4 h before termination CellTiter-Blue reagent was added in a ratio of 1:10. Fluorescence intensity was determined by using the SpectraFluor Plus plate reader (Tecan, Männedorf, Switzerland) at 550 nm excitation and 595 nm emission wavelength. Fluorescence intensity is proportional to the cell number. Non-linear regression was carried out using the log(inhibitor) vs. response–variable slope (four parameters) function of GraphPad Prism (San Diego, CA, USA).
Figure 4 Cytotoxic effects of cassiarin A (5) and analogs 11b, 11c, and 11d on proliferation of HUVEC assessed by CellTiter-Blue^TM assay. IC50 values were determined using the log(inhibitor) vs. response—variable slope (four parameters) function of GraphPad Prism (10.4.0). Data are shown as mean ± SD.

[5] = chloroquine-sensitive strain 3D7, Malstat assay, 72 h
[6] = chloroquine-resistant strain Dd2, Malstat assay, 72 h

| Structure (SMILES) | IC50 [1, 5] [µM] | IC90 [1, 5] [µM] | RI, resistance index = IC50 (Dd2)/IC50 (3D7) [2] | IC50 [2, 6] [µM] | IC90 [2, 6] [µM] | IC50 [4] [µM] | further results |
| --- | --- | --- | --- | --- | --- | --- | --- |
| CCN(CC)CCCC(C)Nc1ccnc2cc(Cl)ccc12 (centres unmarked) [Compound 2, chloroquine, reference compound] |  |  | 5.3 |  |  |  | IC50 ([1]; 3D7, 72 h): 0.03 ± 0.01 µM; IC90 ([1]; 3D7, 72 h): 0.05 ± 0.01 µM; IC50 ([2]; DD2, 72 h): 0.16 ± 0.04 µM; IC90 ([2]; DD2, 72 h): 0.23 ± 0.13 µM; selectivity index (=IC50 (HUVEC)/IC50 (3D7)) [3]: 1987 |
| CC1=Cc2nc(C)cc3cc(O)cc(c23)O1 [Compound 5, Cassiarin A] | 9.6 ± 0.63 | 16.4 ± 3.07 | 1.4 | 13.6 ± 3.95 | 20.5 ± 11.9 | 16.4 |  |
| CC1=Cc2nc(CN)cc3cc(O)cc(c23)O1 [Compound 11a, 5-(Aminomethyl)-2-methylpyrano[2,3,4-ij]isoquinolin-8-ol] | 31.9 ± 11.5 | 53.3 ± 10.5 |  |  |  |  |  |
| Oc1cc2c3c(nc(-c4ccccc4)cc3c1)C=C(c1ccccc1)O2 [Compound 11b, 2,5-Diphenylpyrano[2,3,4-ij]isoquinolin-8-ol] | 2 ± 0.18 | 2.9 ± 0.53 |  |  |  | 2.22 |  |
| Cc1cc2cc(O)cc3c2c(n1)C=C(c1ccccc1)O3 [Compound 11c, 5-Methyl-2-phenylpyrano[2,3,4-ij]isoquinolin-8-ol] | 0.4 ± 0.04 | 0.5 ± 0.11 | 4.3 | 1.7 ± 0.74 | 2.1 ± 1.08 | 1.23 |  |
| NCc1cc2cc(O)cc3c2c(n1)C=C(c1ccccc1)O3 [Compound 11d, 5-(Aminomethyl)-2-phenylpyrano[2,3,4-ij]isoquinolin-8-ol] | 0.6 ± 0.11 | 1 ± 0.28 | 2.0 | 1.2 ± 0.32 | 1.8 ± 0.17 | 0.68 |  |
| OCc1cc2cc(O)cc3c2c(n1)C=C(c1ccccc1)O3 [Compound 11e, 5-(Hydroxymethyl)-2-phenylpyrano[2,3,4-ij]isoquinolin-8-ol] | 2.1 ± 0.38 | 2.7 ± 0.22 |  |  |  |  |  |
| Cc1cc2cc(O)cc3c2c(n1)C=C(c1ccc(O)cc1)O3 [Compound 11g, 2-(4-Hydroxyphenyl)-5-methylpyrano[2,3,4-ij]isoquinolin-8-ol] | 0.4 ± 0.03 | 0.9 ± 0.54 | 4.8 | 1.9 ± 1.01 | 5.9 ± 3.42 |  |  |
| COC(=O)c1ccc(C2=Cc3nc(C)cc4cc(O)cc(c34)O2)cc1 [Compound 18c, Methyl 4-(8-hydroxy-5-methylpyrano[2,3,4-ij]isoquinolin-2-yl)benzoate] | 0.2 ± 0.05 | 0.4 ± 0.14 | 2.0 | 0.4 ± 0.21 | 0.8 ± 0.58 |  |  |

Second part, led by results:

| IC50 [1, 5] [µM] | IC90 [1, 5] [µM] | Structure (SMILES) | RI, resistance index = IC50 (Dd2)/IC50 (3D7) [2] | IC50 [2, 6] [µM] | IC90 [2, 6] [µM] | IC50 [4] [µM] | further results |
| --- | --- | --- | --- | --- | --- | --- | --- |
| 1.7 ± 0.2 | 3.4 ± 1.28 | OCCc1cc2cc(O)cc3c2c(n1)C=C(c1ccccc1)O3 [Compound 11f, 5-(2-Hydroxyethyl)-2-phenylpyrano[2,3,4-ij]isoquinolin-8-ol] |  |  |  |  |  |
| 1.9 ± 0.19 | 2.5 ± 0.49 | CCCCC1=Cc2nc(C)cc3cc(O)cc(c23)O1 [Compound 18a, 2-Butyl-5-methylpyrano[2,3,4-ij]isoquinolin-8-ol] |  |  |  |  |  |
| 2.2 ± 0.58 | 3.2 ± 0.68 | COc1cc2c3c(nc(C)cc3c1)C=C(c1ccc(OCCO)cc1)O2 [Compound 18b, 2-(4-(8-Methoxy-5-methylpyrano[2,3,4-ij]isoquinolin-2-yl)phenoxy)ethan-1-ol] |  |  |  |  |  |
| ≥ 100 | ≥ 100 | C#CCOc1cc2c3c(nc(C)cc3c1)C=C(c1ccccc1)O2 [Compound 24, 5-Methyl-2-phenyl-8-(prop-2-in-1-yloxy)pyrano[2,3,4-ij]isoquinoline] |  |  |  |  | antiplasmodial activity (in words) ([1]; strain 3D7, Malstat assay): complete loss of antiplasmodial activity |

From paper PMC12299140, “Synthetic Analogs of the Alkaloid Cassiarin A with Enhanced Antimalarial Activity” (Pharmaceuticals, 2025)
